Source: US9044483B2, “Cell death inhibition by macrophage migration inhibitory factor and a binding substance thereto” (Takeda Pharmaceuticals Company Limited, priority 2006, dated 2015)

How the values were obtained:
[1] = target: T1, rat MIF (Rattus norvegicus, UniProt P30904, G111N); experiment: Binding to rat MIF by surface plasmon resonance (BIACORE 3000), compound immobilized on sensor chip CM5; details: 1 μg/ml rat MIF in PBS with 0.005% Tween 20, FIG. 1, FIG. 4
T1 construct: made in house; host or cells: Escherichia coli BL21 (DE3)
Protocol: The binding of rat MIF obtained in REFERENCE EXAMPLE 2 to Compound A (cf., EXAMPLE 107 of WO 03/020719; see the formula below) was analyzed by BIACORE 3000 (manufactured by Biacore Co., Ltd.).
(§1) After Compound A was immobilized onto a sensor chip CM5 (manufactured by Biacore Co., Ltd.), phosphate buffered saline containing 0.005% Tween 20 containing 1 μg/ml of rat MIF was passed over the chip to assess changes in surface plasmon resonance signal as the binding of the compound to rat MIF.
as §1, with “The binding of rat MIF obtained in REFERENCE EXAMPLE 2 to” for “After”, “C (see the formula below) was analyzed by BIACORE 3000 (manufactured by Biacore Co., Ltd.). In a manner similar to EXPERIMENT 1(1), Compound C” for “A”, “Ltd.) and then,” for “Ltd.),”

[2] = target: T2, His-hMIF (Homo sapiens, UniProt P14174); experiment: Binding of His-hMIF (peptide added to N terminus) to immobilized Compound A by BIACORE 3000; details: FIG. 5
T2 construct: the region encoding MIF was amplified from human complementary DNA (cDNA) library; made in house; host or cells: Escherichia coli BL21 (DE3)
T2 sequence (P14174 with tags, fused parts or gaps): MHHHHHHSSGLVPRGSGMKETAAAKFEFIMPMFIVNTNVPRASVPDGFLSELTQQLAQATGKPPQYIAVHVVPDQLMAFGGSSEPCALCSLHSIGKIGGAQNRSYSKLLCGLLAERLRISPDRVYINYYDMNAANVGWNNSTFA
Protocol: (§2) After Compound A was immobilized onto a sensor chip CM5 (manufactured by Biacore Co., Ltd.), HBS-EP buffer (manufactured by Biacore Co., Ltd.) containing 10 μg/ml of hMIF or hMIF-P1S was passed over the chip to assess changes in surface plasmon resonance signal as the binding of the compound to human MIF.
Similarly, the binding of Compound A to His-hMIF added with the peptide to its N terminus, obtained in REFERENCE EXAMPLE 3, was analyzed.

[3] = target: T3, hMIF-P1S (Homo sapiens, UniProt P14174); experiment: Binding of modified human MIF (hMIF-P1S) to immobilized Compound A by BIACORE 3000; details: 10 μg/ml hMIF or hMIF-P1S in HBS-EP buffer, FIG. 2
T3 construct: the region encoding MIF was amplified from human complementary DNA (cDNA) library; made in house; host or cells: Escherichia coli BL21 (DE3)
T3 sequence (P14174 with tags, fused parts or gaps): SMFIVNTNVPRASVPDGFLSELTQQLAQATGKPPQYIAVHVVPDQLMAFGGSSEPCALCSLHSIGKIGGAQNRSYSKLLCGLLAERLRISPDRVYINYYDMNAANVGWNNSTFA
Protocol: The binding of human MIF (hMIF) and modified human MIF (hMIF-P1S) obtained in REFERENCE EXAMPLE 1 to Compound A was analyzed by BIACORE 3000 (manufactured by Biacore Co., Ltd.).
as §2

binding of the compound to rat MIF (changes in surface plasmon resonance signal) [1]	binding ability of Compound A to human MIF with 30 amino acid-polypeptide containing histidine tag added to the N terminus (His-hMIF), compared with hMIF [2]	binding ability of Compound A to human MIF with N-terminal proline replaced by serine (hMIF-P1S), compared with hMIF [3]	Compound
weaker than that of Compound A			Cc1cccc2c(=O)nc(-c3cccc(C(=O)NCCCCCCN)n3)sc12 [Compound C, N-(6-aminohexyl)-6-(8-methyl-4-oxo-4H-1,3-benzothiazin-2-yl)pyridine-2 carboxamide]
strongly binds	greatly attenuated	greatly attenuated	NCCCCCCNC(=O)c1cccc(-c2nc(=O)c3ccccc3s2)n1 [Compound A, N-(6-aminohexyl)-6-(4-oxo-4H-1,3-benzothiazin-2-yl)-2-pyridinecarboxamide]
